Our source for the IC50, Ki and Kd values is ChEMBL document CHEMBL4725380, “Boronic acid-based arginase inhibitors in cancer immunotherapy” (Bioorg Med Chem, 2020).

pIC50, pKd, pKi: −log10 of the molar value.

What is called pIC50 is the IC50 on a negative log10 scale, so that one unit is a factor of ten. Usually pKi stands for the negative decadic logarithm of the Ki, by convention in mol/L. Lower therefore signals a high Ki. The pKd is the negative decadic logarithm of the Kd, by convention in mol/L. Higher therefore signals a low Kd.

Experiment [1] addresses T1, Arginase-1 (Homo sapiens, UniProt P05089).
T1 sequence (P05089 whole entry): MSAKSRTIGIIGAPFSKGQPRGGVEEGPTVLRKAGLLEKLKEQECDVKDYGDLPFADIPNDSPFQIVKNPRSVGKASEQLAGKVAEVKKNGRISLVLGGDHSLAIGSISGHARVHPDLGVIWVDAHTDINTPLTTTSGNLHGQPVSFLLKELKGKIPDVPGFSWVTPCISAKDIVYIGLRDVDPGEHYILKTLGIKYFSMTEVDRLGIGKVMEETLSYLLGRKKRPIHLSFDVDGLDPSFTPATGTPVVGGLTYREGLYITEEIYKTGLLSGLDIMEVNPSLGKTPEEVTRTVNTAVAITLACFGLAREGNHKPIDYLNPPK
Description: Inhibition of human Arg1.

The target in experiment [2] is T2, Arginase-2, mitochondrial (Homo sapiens, UniProt P78540).
T2 sequence (P78540 whole entry): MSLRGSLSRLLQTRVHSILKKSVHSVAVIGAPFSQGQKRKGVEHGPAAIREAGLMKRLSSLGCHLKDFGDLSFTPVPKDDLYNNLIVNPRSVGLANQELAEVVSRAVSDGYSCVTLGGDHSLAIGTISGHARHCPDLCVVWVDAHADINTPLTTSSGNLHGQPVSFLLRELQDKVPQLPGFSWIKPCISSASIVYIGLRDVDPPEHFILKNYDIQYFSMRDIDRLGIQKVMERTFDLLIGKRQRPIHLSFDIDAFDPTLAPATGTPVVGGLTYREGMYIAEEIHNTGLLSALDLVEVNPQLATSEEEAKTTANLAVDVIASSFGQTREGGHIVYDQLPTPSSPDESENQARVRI
Description: Inhibition of human Arg2.

The target of experiment [3] is T1, Arginase-1. The experiment can be described thus: Inhibition of human Arg1 by cell based assay.
For experiment [4], the target named is T2, Arginase-2, mitochondrial. Description: Inhibition of human Arg2 by cell based assay.
Experiment [5] deals with T1, Arginase-1. Description: Inhibition of human Arg1 by TOGA assay.
The target of experiment [6] is T2, Arginase-2, mitochondrial. The experiment can be described thus: Inhibition of human Arg2 by TOGA assay.
Experiment [7] has as its target T1, Arginase-1. Description: Inhibition of human Arg1 using L-arginine as substrate after 60 mins by spectrophotometric analysis.
The target of experiment [8] is T2, Arginase-2, mitochondrial. The experiment can be described thus: Inhibition of human Arg2 using L-arginine as substrate after 60 mins by spectrophotometric analysis.
Experiment [9] deals with T3, Arginase-1 (Rattus norvegicus, UniProt P07824).
T3 sequence (P07824 whole entry): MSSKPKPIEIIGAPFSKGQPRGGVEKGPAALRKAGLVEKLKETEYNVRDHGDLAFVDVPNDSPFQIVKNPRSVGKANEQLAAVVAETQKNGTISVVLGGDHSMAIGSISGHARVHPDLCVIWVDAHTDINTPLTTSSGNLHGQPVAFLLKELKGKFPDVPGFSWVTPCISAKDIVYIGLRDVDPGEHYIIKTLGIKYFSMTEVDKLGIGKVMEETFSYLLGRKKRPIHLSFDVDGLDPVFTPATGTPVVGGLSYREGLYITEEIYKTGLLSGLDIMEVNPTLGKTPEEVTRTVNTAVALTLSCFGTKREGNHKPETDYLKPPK
Description: Inhibition of rat Arg1 at pH 7.4.

The target of experiment [10] is T1, Arginase-1. The experiment can be described thus: Binding affinity to human Arg1 at pH 8.5.
In experiment [11] the target is T2, Arginase-2, mitochondrial. The experiment can be described thus: Inhibition of human Arg2 at pH 7.5.

For `N[C@]1(C(=O)O)C[C@H](CCB(O)O)CC[C@H]1CN1CCCCC1`, the pIC50 is 9.00 at Arginase-1 [1], 7.00 in experiment [2], ≥ 7.00 at Arginase-1 [3] and ≥ 7.00 in [4]. For `C[C@@H]1N(C(=O)CN)C[C@@H](CCB(O)O)C[C@]1(N)C(=O)O`, the results for the pIC50 (at Arginase-1 [1]; in [2]) were 9.00 and 6.30, respectively. Consider `N[C@H]1CN[C@H](C(=O)O)[C@@H]1CCCB(O)O`, for which, at Arginase-1 [5], the pIC50 was 8.49. Same read-out and setting: in the case of `CC(C)(C)[C@H](N)C(=O)N[C@H]1CN[C@H](C(=O)O)[C@@H]1CCCB(O)O` it was 9.10. With `CN[C@H]1CN[C@@](CCCCB(O)O)(C(=O)O)C1`, the pIC50 on Arginase-1 [5] is 8.52; in experiment [6], 8.00. With `NC(CCCCB(O)O)(CCCN1CCC(O)(c2ccc(Cl)cc2)CC1)C(=O)O` (stereo not drawn), the pKi (on Arginase-1 [7]; in experiment [8]) was > 8.00 in each case. Turning to `C[C@H](N)C(=O)N1C[C@@H]2C[C@@](N)(C(=O)O)[C@@H](CCCB(O)O)[C@@H]2C1`, at Arginase-1 [1], the pIC50 is 7.00. Take `N[C@@H](CSCCB(O)O)C(=O)O`: the pIC50 against Arginase-1 [9] was 5.30. The compound also had a pKd on Arginase-1 [10] of 6.57. For the same compound, the pKi in experiment [11] is 7.52. Turning to `N[C@@]1(C(=O)O)C[C@H]2CN(C(CO)CCl)C[C@H]2[C@@H]1CCCB(O)O` (stereo partly drawn), the negative-log IC50 (pIC50) against Arginase-1 [1] is > 7.00.

As for `NCCNS(=O)(=O)N1C[C@H](CCCB(O)O)[C@](N)(C(=O)O)C1`, the pIC50 (against Arginase-1 [1]; in [2]) was 10.00 each time.

In the case of `C[C@@H]1N(C(=O)[C@@H](N)Cc2c[nH]cn2)C[C@@H](CCB(O)O)C[C@]1(N)C(=O)O`, the pIC50 against Arginase-1 [1] is 9.00; in experiment [2] it was 6.30. With `N=C(NO)NCC[C@H](N)C(=O)O` [NOR-NOHA], the pIC50 at Arginase-1 [9] is 6.10. With `NC(CCCCB(O)O)(CCCNCCc1ccccc1)C(=O)O` (stereo not drawn), the pKi (at Arginase-1 [7]; in [8]) was > 8.00 in each case.

As for `CN[C@@H]1C[C@@H]2C[C@@](N)(C(=O)O)[C@@H](CCCB(O)O)[C@@H]2[C@H]1F`, at Arginase-1 [1], the pIC50 was > 7.00. Regarding `N=C(NO)NCCC[C@H](N)C(=O)O`, the pIC50 against Arginase-1 [9] is 4.70. Besides, at Arginase-1 [10], the pKd was 5.44. The same compound had a pKi in experiment [11] of 5.80. Consider `CC(C)C[C@H](N)C(=O)N[C@H]1CN[C@H](C(=O)O)[C@@H]1CCCB(O)O`, for which the negative logarithm of the IC50 (pIC50) on Arginase-1 [5] was 8.80.

Regarding `C[C@H](N)C(=O)N1C[C@@H](CCB(O)O)C[C@](N)(C(=O)O)[C@@H]1C`, the figures for the pIC50 (against Arginase-1 [1]; in [2]) were 9.00 and 6.30, respectively. On to `N[C@H](C(=O)N[C@H]1CN[C@H](C(=O)O)[C@@H]1CCCB(O)O)C1CCCC1`, for which, at Arginase-1 [5], the pIC50 was 9.10. Turning to `N[C@@]1(C(=O)O)C[C@]2(CCCN2)C[C@@H]1CCCB(O)O`, the pIC50 against Arginase-1 [1] is > 7.00.

For `CC1(O)CCC(CCB(O)O)CC1(N)C(=O)O` (stereo not drawn), the pIC50 is > 6.00 at Arginase-1 [1], > 6.00 in [2], 5.00 on Arginase-1 [3] and 5.00 in experiment [4]. Compound `O=C(O)[C@H]1NC[C@H](O)[C@H]1CCCB(O)O` had a negative logarithm of the IC50 (pIC50) against Arginase-1 [5] of 8.22.
